Laboratory results taken from patent US7538185B2, “Glucagon-like peptide-1 analogs with long duration of action” (Theratechnologies Inc., priority 2004, dated 2009).

Tests used:
CD-1 mice [1] = test: Post-prandial blood glucose levels in CD-1 mice (Example 2, FIG. 1); type: in vivo; details: CD-1 mice fasted overnight, fed 30 minutes, peptides 400 μg/kg sc, blood glucose followed 6 hours
Method: Various peptides, including peptides of the present invention (400 μg/kg), were administered sc at 30 minutes and the blood glucose levels were determined for the next 6 hours. The data are presented as mean ±SEM values;
Overnight fasted CD-1 normal female mice (6 wk. Charles River, Montreal, Canada), were fed ad libidum for 30 minutes. […] Blood samples were drawn by tail vein excision and blood glucose levels (mmol/L) were determined for the next 6 hours using a One-Touch™ glucometer.

[2] = tested on: cAMP production in RINm5F cells; test: cAMP production in RINm5F cells (Example 5); type: cell-based; details: 30 minutes at 37° C., 0.1 mM IBMX, mean ± SEM
Method: RINm5F cells (ATCC # CRL-2058) were grown according to the manufacturer's specifications. Cells from approximately 90% confluent flasks were trypsinized and counted. […] Samples of the stock solutions were then aliquoted in 100 μl volumes (100 μg), to which were then added 400 μl H2O. The aliquots were then frozen and lyophilized overnight. The lyophilized samples were kept at −80° C. until used. The samples were prepared just prior to running the experiments, at a concentration of 1 mM (accounting for peptide purity and peptide content when available). From 2× stock solutions, dose-responses (10^−10 M to 10^−5 M) were measured in RPMI containing 0.1 mM IBMX. […] Cell culture media was gently aspired from the wells. The cells were then pre-incubated in 100 μl RPMI 0.1 mM IBMX at 37° C. for 10 minutes. […] At the end of the incubation period, the supernatant was collected and assayed for cAMP concentration, using a radioimmunoassay kit (DPC). Radioactive counts were transformed into cAMP amounts using a standard curve. The obtained cAMP values were corrected for the total protein in the corresponding wells as determined using the Coomassie blue assay. The cAMP values are expressed as mean ±SEM in pmol/mg protein (Table 3). Dose responses of cAMP were fitted to a sigmoidal curve model (fixed slope) using GraphPad Prism 3.02™. When performing a protein assay, the amount of protein per well is assayed for each sample. The cells were lysed with NaOH (0.1 N) and a 10 μl aliquot was used to assay the protein levels. This is done using Coomassie Blue (Pierce) and an automated plate reader Emax Pro™ (Molecular Devices).

[3] = active GLP-1; Holst 1994; cited from earlier work
[4] = Nauck 1996; Todd 1998; cited from earlier work
[5] = target: T1, GLP-1 receptor in RINm5F cells (Rattus norvegicus, UniProt P32301); test: Displacement of 125I-GLP-1(7-36)NH2 using RINm5F cells (Example 4, FIG. 3); type: binding; details: RINm5F cell membranes, 400 μg protein, 22° C., 45 minutes
T1 construct: The cell membranes were diluted to obtain aliquots of 400 μg of protein per assay tube; host or cells: RINm5F cells, sonicated to a membrane preparation
T1 sequence (P32301 22-463): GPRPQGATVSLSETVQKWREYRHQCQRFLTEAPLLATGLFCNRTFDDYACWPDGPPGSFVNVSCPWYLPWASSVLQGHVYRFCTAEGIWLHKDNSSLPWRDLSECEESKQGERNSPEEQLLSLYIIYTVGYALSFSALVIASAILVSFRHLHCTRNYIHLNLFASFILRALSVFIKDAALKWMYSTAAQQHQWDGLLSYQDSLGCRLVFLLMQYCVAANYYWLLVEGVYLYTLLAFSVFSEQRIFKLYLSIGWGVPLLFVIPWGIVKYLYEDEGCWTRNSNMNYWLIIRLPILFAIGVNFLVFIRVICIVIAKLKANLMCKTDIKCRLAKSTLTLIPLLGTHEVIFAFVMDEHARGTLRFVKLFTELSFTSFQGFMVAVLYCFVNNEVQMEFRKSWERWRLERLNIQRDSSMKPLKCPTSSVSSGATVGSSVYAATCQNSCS
Method: The IC50 is calculated as the half-maximal inhibition of binding of the radiolabeled peptide; RINm5F cells (ATCC # CRL-2058) were grown according to the manufacturer's specifications. Cells from confluent flasks were maintained for four (4) days prior to the experiment. The cells were then scrapped and collected in 15 ml conical tubes followed by sonication and evaluation of protein levels. The cell membranes were diluted to obtain aliquots of 400 μg of protein per assay tube. Aliquots of RINm5F cells containing 400 μg of protein were incubated at 22° C. […] The reactions were stopped using 100 mM Tris-HCl (3×3 mL, pH 7.4) and the solutions passed through a GF/C Whatman glass microfiber filter. The latter was subsequently placed into glass tubes and counted on a Packard COBRA II Gamma counter™. Displacement isotherms were traced and analyzed using Prism™ (GraphPad, Ca).

Sprague-Dawley rats = test: Blood glucose levels in Sprague-Dawley rats under hyperglycemic clamping (Example 3, FIG. 2); type: in vivo; details: hyperglycemic clamping at 15 mM, sc
Method: Various peptides, including peptides of the present invention (100 μg/kg) were administered sc. Alterations in blood glucose levels (Delta glucose: mM) are shown on the abscissa. The data are presented as mean ±SEM values;
The animals (Sprague-Dawley rats) were maintained on standard laboratory chow under a 12:12 light:dark cycle. Following a 12 hour fasting period, the animals were anesthetized (Isoflurane 2%) and a carotid and jugular catheter installed to allow blood withdrawal and glucose injections (1.0 g/kg bolus followed by an infusion of 1.4 g/kg/hr) respectively. The animals received a subcutaneous injection of the analogs at different concentrations (300 μg/kg) 90 minutes after initiating the glucose bolus and infusion, at a time period where blood glucose concentrations have reached a steady level. Blood glucose measurements were taken prior to and 30, 60, 90, 100, 110, 120, 135, 150, 180, 210, and sometimes 240 and 300 minutes after the injection of glucose.
Glucose measurements were carried out immediately following sampling (0.3-0.4 ml; if needed) by placing a blood droplet on a glucometer strip. The glucose measurements were carried out prior to plasma separation (centrifugation) required to perform the insulin and/or any other assay.

CD-1 mice [6] = test: Post-prandial glucose lowering in fed CD-1 mice (Example 6, FIG. 4); type: in vivo; details: 400 μg/kg sc, AUC glucose over 6 hours
Method: Post-prandial AUC glucose levels for a 6 hour period are presented as a bar (mean ±SEM; n=the number of animals as presented above the bar). […] FIGS. 5, 6, 7 and 8 illustrate the effect (dose response) on post-prandial glucose levels in CD-1 mice for selected analogs. […] The blood glucose levels were measured for a period of up to 6 hours following injection (mean ±SEM; upper panel). The AUC glucose for the 6 hours period is presented as a bar (mean ±SEM; lower panel; n is the number of animals as presented on top of the lower panel bars); The animals (CD-1 mice) were maintained on standard laboratory chow under a 12:12 light:dark cycle. The animals were kept in groups of 4 mice per cage. […] The amount of food eaten was monitored. The food was then removed and the animals were injected subcutaneously with either vehicle or with a GLP-1 analogue to be tested. […] A small piece of the tip of the tail of the CD-1 mice was cut with a scalpel and a drop of blood drawn by applying light pressure with the thumb and index from the base of the tail to the tip. The drop of blood was placed on a glucometer strip (Accucheck™ compact, Roche) and a reading obtained. The scab was removed and the same procedure applied for each subsequent measurement.

[7] = tested on: streptozotocin-induced diabetic CD-1 mice; test: Glucose lowering in fed streptozotocin-induced diabetic CD-1 mice (Example 8, FIGS. 12-16); type: in vivo; details: for glucose levels of streptozotocin-induced diabetic mice / duration of action: fed STZ-induced diabetic CD-1 mice, sc; for duration of action: FIGS. 12-16
Method: Blood glucose levels were measured for 12 hours post-injection (mean ±SEM; upper panel). […] In order to compare the duration of the effects of TH0396 and Exendin-4™, the glucose levels at the last hour of observation were analyzed in a dose-dependent manner. […] At 10:00 am, the animals were injected subcutaneously with the agent. Blood glucose levels were measured for 12 hours post-injection (mean ±SEM; upper panel). Average glucose levels at 11 and 12 hours are presented after subtracting the fed glucose levels of normal mice (n is the number of animals as presented on top of the lower panel bars). The animals (CD-1 mice) were maintained on standard laboratory chow under a 12:12 light:dark cycle. The animals were kept in groups of 4 mice per cage. […] The amount of food eaten was monitored for the duration of the experiment. […] A small piece of the tip of the tail of the CD-1 mice was cut with a scalpel and a drop of blood drawn by applying light pressure with the thumb and index from the base of the tail to the tip. The drop of blood was placed on a glucometer strip (Accucheck™ compact, Roche) and a reading obtained. The scab was removed and the same procedure applied for each subsequent measurement.

Substance	EC50 [2]	Maximal response [2]	reduction of post-prandial glucose (CD-1 mice [6])	glucose levels of streptozotocin-induced diabetic mice [7]	duration of action [7]	also measured
2-Hydroxybenzoyl-NH-His-Ala-Glu-Gly-Thr-Phe-Thr-Ser-Asp-Val-Ser-Ser-Tyr-Leu-Glu-Gly-Gln-Ala-Ala-Lys-Glu-Phe-Ile-Ala-Trp-Leu-Val-Lys-Gly-Arg-NH2 [TH0318]	13.6 ± 2.9 nM	3.5 ± 0.2 pmol/mg protein	–	–	–	duration of hypoglycemic action (CD-1 mice [1]): 2 h
HAEGTFTSDVSSYLEGQAAKEFIAWLVKGR [GLP-1, reference compound]	1.8 ± 0.9 nM	1.5 ± 0.3 pmol/mg protein	–	–	–	metabolic clearance rate [3]: 12 to 13 min; duration of hypoglycemic action (CD-1 mice [1]): 2 h; duration of hypoglycemic action [4]: 2 to 3 h
His-Ala-Glu-Gly-Thr-Phe-Thr-Ser-Asp-Val-Ser-Ser-Tyr-[(S)-Octylglycine]-Glu-Gly-Gln-Ala-Ala-Lys-Glu-Phe-Ile-Ala-Trp-Leu-Val-Lys-Gly-Arg-NH2 [TH0322]	0.2 ± 0.2 nM	1.0 ± 0.2 pmol/mg protein	–	–	–	potency in displacing receptor bound ligand (125I-GLP-1(7-36)NH2) [5]: considerably more potent than GLP-1
His-Gly-Glu-Gly-Thr-Phe-Thr-Ser-Asp-Val-Ser-Ser-Tyr-Leu-Glu-Gly-Gln-Ala-Ala-Lys-Ala-Phe-lle-Glu-Trp-Leu-Lys-Asn-NH2 [TH0384]	–	–	–	–	–	potency in displacing receptor bound ligand (125I-GLP-1(7-36)NH2) [5]: considerably more potent than GLP-1; potency on blood glucose levels (delta glucose) (Sprague-Dawley rats): more potent than GLP-1 or the 2-hydroxybenzoyl-GLP-1 analog TH0318
His-Gly-Glu-Gly-Thr-Phe-Thr-Ser-Asp-Val-Ser-Ser-Tyr-[(S)-Octylglycine]-Glu-Gly-Gln-Ala-Ala-Lys-Ala-Phe-Ile-Glu-Trp-Leu-Lys-Asn-NH2 [TH0397]	–	–	potently reduce post-prandial glucose	–	–	–
trans-3-hexenoyl-NH-His-Ala-Glu-Gly-Thr-Phe-Thr-Ser-Asp-Val-Ser-Ser-Tyr-[(S)-Octylglycine]-Glu-Gly-Gln-Ala-Ala-Lys-Ala-Phe-Ile-Glu-Trp-Leu-Lys-Asn-NH2 [TH0395]	6.1 ± 0.9 nM	3.7 ± 0.4 pmol/mg protein	potently reduce post-prandial glucose	down to those seen in normal feeding mice	extended duration of action	potency compared with Exendin-4 ([7]; STZ-induced diabetic mice, initial 6 hours of the study, FIG. 14): more potent then Exendin-4™
trans-3-hexenoyl-NH-His-Ala-Glu-Gly-Thr-Phe-Thr-Ser-Asp-Val-Ser-Ser-Tyr-[(S)-Octylglycine]-Glu-Gly-Gln-Ala-Ala-Lys-Ala-Phe-Ile-Glu-Trp-Leu-Val-Lys-Asn-NH2 [TH0396]	2.3 ± 1.7 nM	3.9 ± 0.3 pmol/mg protein	potently reduce post-prandial glucose	down to those seen in normal feeding mice	extended duration of action	–
trans-3-hexenoyl-NH-His-Ala-Glu-Gly-Thr-Phe-Thr-Ser-Asp-Val-Ser-Ser-Tyr-[(S)-Octylglycine]-Glu-Gly-Gln-Ala-Ala-Lys-Glu-Phe-Ile-Ala-Trp-Leu-Val-Lys-Aib-Arg-NH2 [TH0426]	0.4 ± 0.4 nM	5.7 ± 0.6 pmol/mg protein	–	–	–	–
trans-3-hexenoyl-NH-His-Ala-Glu-Gly-Thr-Phe-Thr-Ser-Asp-Val-Ser-Ser-Tyr-[(S)-Octylglycine]-Glu-Gly-Gln-Ala-Ala-Lys-Glu-Phe-Ile-Ala-Trp-Leu-Val-Lys-Gly-Arg-NH2 [TH0424]	6.3 ± 1.7 nM	4.3 ± 0.2 pmol/mg protein	potently reduce post-prandial glucose	down to those seen in normal feeding mice	extended duration of action	–
